Experimental data taken from patent US5128331A, “Method for lowering plasma lipid levels or blood pressure” (priority 1988, dated 1992).
Like-named read-outs stand apart in the source and are kept apart here.

Experiments:
mice of the OF1 strain = assay: Hypolipidemic activity: plasma cholesterol and plasma triglycerides in mice fed compound in chow; type: in vivo; settings: for change in vivo at 180 mg/kg: Mus musculus, feed or water, 240 h
Procedure: With the goal of finding new drugs which might be hypolipidemic, the new diphosphonates described in this patent application were administered orally to mice. This rodent species has plasma lipid level relatively close to man (generally greater than 150 mg/dl). For example, in mice receiving a normal diet the plasma cholesterol and triglyceride levels are in the range of 100 mg/dl, whereas for rat the comparative values are close to 50 mg/dl.
In every screening experiment, 30 mice of the OF1 strain weighing 25 to 35 g were divided into 5 groups of 6 animals each. Four groups received the compounds to be tested, or the reference drugs, the fifth group served as control. Compounds were dissolved in diethyl ether, and solution was added to the pelleted food and the ether was evaporated.
All compounds were tested at the final concentration of 0.1% in animal chow, equivalent to a daily intake of about 180 mg/kg. This diet was fed for 10 days, then after an overnight fasting the animals were sacrified by decapitation under ether anesthesia. Blood samples were collected in EDTA containing tubes.
Plasma cholesterol and plasma triglycerides were measured by enzymatic methods (Ames kit No. 6376 and No. 6630).

[1] = tested on: spontaneously hypertensive rat (SHR); assay: Oral hypotensive activity in spontaneously hypertensive rats (SHR); type: in vivo; settings: 2 hours post dose, Table 5
Procedure: The spontaneously hypertensive rat (SHR) is a well established animal model of human arterial hypertension.
In screening experiments various gem-diphosphonates were dissolved in Tween-80 and administered orally to SH rats. Blood pressure was monitored hourly using a tailcuff method.

[2] = mice, 0.1% in animal chow (about 180 mg/kg daily), 10 days, Table 3, given as change from control, read-out: Cholesterol (% control)
[3] = mice, 0.1% in animal chow (about 180 mg/kg daily), 10 days, Table 3, given as change from control, read-out: Triglycerides (% control)
[4] = read-out: Cholesterol (% control)
[5] = read-out: Triglycerides (% control)

Structure (SMILES) | hypocholesterolemic activity (in words) (mice of the OF1 strain; mice, 0.1% in chow, 10 days) | change in vivo at 180 mg/kg (mice of the OF1 strain; [4]) [%] | change in vivo at 180 mg/kg (mice of the OF1 strain; [5]) [%] | hypotriglyceridemia (in words) (mice of the OF1 strain; mice, 0.1% in chow, 10 days) | also measured
Cc1ccc(C)c(OCCCC(C)(C)C(=O)O)c1 [Gemfibrozil, reference compound] | less hypocholesterolemic than many of the diphosphonates tested |  |  |  | change in vivo at 180 mg/kg (mice of the OF1 strain; [2]): -7%; change in vivo at 180 mg/kg (mice of the OF1 strain; [3]): -35%; hypotriglyceridemic potency (plasma triglyceride change) (mice of the OF1 strain; mice, 0.1% in chow, 10 days): -35%
COc1ccc([C@@H]2Sc3ccccc3N(CCN(C)C)C(=O)[C@@H]2OC(C)=O)cc1 [Diltiazem, reference compound] |  |  |  |  | Percent change in blood pressure [1]: -38%
CCOP(=O)(OCC)C(=Cc1cc(C(C)CC)c(O)c(C(C)CC)c1)P(=O)(OCC)OCC (stereo not drawn) [Compound 32] |  | 8 | 9 |  | 
CCOP(=O)(OCC)C(Sc1cc(C(C)(C)C)c(O)c(C(C)(C)C)c1)P(=O)(OCC)OCC [Compound 5, Tetraethyl 3,5-ditertiary-4-hydroxyphenylthio-methylenediphosphonate] | hypocholesterolemic | -22 | -24 | significant hypotriglyceridemia | 
CCOP(=O)(OCC)C(Cc1cc(C(C)(C)C)c(O)c(C(C)(C)C)c1)P(=O)(N(C)C)N(C)C (stereo not drawn) [Compound 19, Diethyl 1-bis(dimethylamino)phosphinyl-2-(3,5-ditertiarybutyl-4-hydroxyphenyl)ethylphosphonate] |  | -6 | -44 |  | decreased plasma triglycerides by (mice of the OF1 strain; mice, 0.1% in chow, 10 days): more than 44%
CCOP(=O)(OCC)C(=Cc1cc(C)c(O)c(C(C)(C)C)c1)P(=O)(OCC)OCC [Compound 30, Tetraethyl 2-(3-tertiarybutyl-4-hydroxy-5-methylphenyl)-ethenylidene-1,1-diphosphonate] |  | 2 | -45 | significant hypotriglyceridemia | decreased plasma triglycerides by (mice of the OF1 strain; mice, 0.1% in chow, 10 days): more than 44%
CCOP(=O)(OCC)C(Cc1cc(C(C)CC)c(O)c(C(C)CC)c1)P(=O)(OCC)OCC (stereo not drawn) [Compound 3] | hypocholesterolemic | -19 | -46 | significant hypotriglyceridemia | decreased plasma triglycerides by (mice of the OF1 strain; mice, 0.1% in chow, 10 days): more than 44%; Percent change in blood pressure [1]: -20%
CCCOP(=O)(OCCC)C(Cc1cc(C(C)(C)C)c(O)c(C(C)(C)C)c1)P(=O)(OCCC)OCCC [Compound 23] | hypocholesterolemic | -15 | -33 | significant hypotriglyceridemia | 
CCOP(=O)(OCC)C(=Cc1cc(C(C)(C)C)c(OC(C)=O)c(C(C)(C)C)c1)P(=O)(OCC)OCC [Compound 41, Tetraethyl 2-(3,5-ditertiarybutyl-4-acetoxyphenyl)-ethenylidene-1,1-diphosphonate] |  | -3 | 6 |  | 
CC(C)OC(=O)C(C)(C)Oc1ccc(C(=O)c2ccc(Cl)cc2)cc1 [Fenofibrate, reference compound] | less hypocholesterolemic than many of the diphosphonates tested |  |  |  | change in vivo at 180 mg/kg (mice of the OF1 strain; [2]): -15%; change in vivo at 180 mg/kg (mice of the OF1 strain; [3]): -2%; hypocholesterolemic potency (plasma cholesterol change) (mice of the OF1 strain; mice, 0.1% in chow, 10 days): -15%
CCCOP(=O)(OCCC)C(=Cc1cc(C(C)(C)C)c(O)c(C(C)(C)C)c1)P(=O)(OCCC)OCCC [Compound 48] | hypocholesterolemic |  |  | significant hypotriglyceridemia | change in vivo at 180 mg/kg (mice of the OF1 strain; [2]): -21%; change in vivo at 180 mg/kg (mice of the OF1 strain; [3]): -36%
CC(C)OP(=O)(OC(C)C)C(=Cc1cc(C(C)(C)C)c(O)c(C(C)(C)C)c1)P(=O)(OC(C)C)OC(C)C [Compound 34] | hypocholesterolemic |  |  |  | change in vivo at 180 mg/kg (mice of the OF1 strain; [2]): -41%; change in vivo at 180 mg/kg (mice of the OF1 strain; [3]): 11%; hypocholesterolemic potency (plasma cholesterol change) (mice of the OF1 strain; mice, 0.1% in chow, 10 days): -41%
CCCCOP(=O)(OCCCC)C(=Cc1cc(C(C)(C)C)c(O)c(C(C)(C)C)c1)P(=O)(OCC)OCC [Compound 42, Dibutyl diethyl 2-(3,5-ditertiarybutyl-4-hydroxyphenyl)-ethenylidene-1,1-diphosphonate] |  | 12 | 1 |  | 
CCOP(=O)(OCC)C(Cc1cc2c(cc1Cl)OCO2)P(=O)(OCC)OCC [Compound 13, Tetraethyl 2-(3,4-methylenedioxy-6-chlorophenyl)-ethylidene-1,1-diphosphonate] |  | -5 | 38 |  | 
CCOP(=O)(OCC)C(=Cc1cc(C(C)C)c(O)c(C(C)C)c1)P(=O)(OCC)OCC [Compound 31] |  | 4 | -11 | significant hypotriglyceridemia | 
COP(=O)(OC)C(=Cc1cc(C(C)(C)C)c(O)c(C(C)(C)C)c1)P(=O)(OC)OC [Compound 47] | hypocholesterolemic | -31 | -45 | significant hypotriglyceridemia | decreased plasma triglycerides by (mice of the OF1 strain; mice, 0.1% in chow, 10 days): more than 44%
CCOP(=O)(OCC)C(=Cc1cc(C(C)(C)C)cc(C(C)(C)C)c1O)P(=O)(OCC)OCC [Compound 46] |  | 1 | -12 |  | 
CCOP(=O)(OCC)C(CCCCCCSc1cc(C(C)(C)C)c(O)c(C(C)(C)C)c1)P(=O)(OCC)OCC [Compound 20, Tetraethyl 7-(3,5-ditertiarybutyl-4-hydroxyphenylthio)-heptylidene-1,1-diphosphonate] |  | 5 | 13 |  | 
CCOP(=O)(OCC)C(=Cc1cc(OC)c(O)c(OC)c1)P(=O)(OCC)OCC [Compound 37] | hypocholesterolemic | -16 | -70 | significant hypotriglyceridemia | decreased plasma triglycerides by (mice of the OF1 strain; mice, 0.1% in chow, 10 days): more than 44%
CCOC(=O)C(C)(C)Oc1ccc(Cl)cc1 [Clofibrate, reference compound] | less hypocholesterolemic than many of the diphosphonates tested |  |  |  | change in vivo at 180 mg/kg (mice of the OF1 strain; [2]): 4%; change in vivo at 180 mg/kg (mice of the OF1 strain; [3]): -5%
CCOP(=O)(OCC)C(CC)(Cc1cc(C(C)(C)C)c(O)c(C(C)(C)C)c1)P(=O)(OCC)OCC [Compound 21, Tetraethyl 1-(3,5-ditertiarybutyl-4-hydroxyphenyl)-butylidene-2,2-diphosphonate] | hypocholesterolemic | -16 | -28 | significant hypotriglyceridemia | 
CCOP(=O)(OCC)C(=CC=Cc1cc(C(C)(C)C)c(O)c(C(C)(C)C)c1)P(=O)(OCC)OCC [Compound 43, Tetraethyl 4-(3,5-ditertiarybutyl-4-hydroxyphenyl)-1,3-butadienylidene-1,1-diphosphonate] |  | -5 | -14 |  | 
CCOP(=O)(OCC)C(Cc1cc(C)c(O)c(C(C)(C)C)c1)P(=O)(OCC)OCC [Compound 1, Tetraethyl 2-(3-tertiarybutyl-4-hydroxy-5-methylphenyl)-ethylidene-1,1-diphosphonate] |  | -2 | -28 |  | 
CCCCOP(=O)(OCCCC)C(=Cc1cc(C(C)(C)C)c(O)c(C(C)(C)C)c1)P(=O)(OCCCC)OCCCC [Compound 35] |  |  |  |  | change in vivo at 180 mg/kg (mice of the OF1 strain; [2]): 0%; change in vivo at 180 mg/kg (mice of the OF1 strain; [3]): 7%
CCOP(=O)(OCC)C(Cc1cc(C(C)C)c(O)c(C(C)C)c1)P(=O)(OCC)OCC [Compound 2] |  | 6 | -17 |  | 
COP(=O)(OC)C(Cc1cc(C(C)(C)C)c(O)c(C(C)(C)C)c1)P(=O)(OC)OC [Compound 10, Tetramethyl 2-(3,5-ditertiarybutyl-4-hydroxyphenyl)-ethylidene-1,1-diphosphonate] |  | -5 | -19 |  | 
CCOP(=O)(OCC)C(=Cc1ccc2c(c1)OCCO2)P(=O)(OCC)OCC [Compound 39] |  | 4 | 17 |  | 
CC(C)(C)c1cc(CC(P2(=O)OCCCO2)P2(=O)OCCCO2)cc(C(C)(C)C)c1O [Compound 24] | hypocholesterolemic |  |  | significant hypotriglyceridemia | change in vivo at 180 mg/kg (mice of the OF1 strain; [2]): -20%; change in vivo at 180 mg/kg (mice of the OF1 strain; [3]): -71%; decreased plasma triglycerides by (mice of the OF1 strain; mice, 0.1% in chow, 10 days): more than 44%
CC(C)OP(=O)(OC(C)C)C(Sc1cc(C(C)(C)C)c(O)c(C(C)(C)C)c1)P(=O)(OC(C)C)OC(C)C [Compound 22] | hypocholesterolemic | -21 | -37 | significant hypotriglyceridemia | 
CCOP(=O)(OCC)C(=Cc1ccc2c(c1)OCO2)P(=O)(OCC)OCC [Compound 38, Tetraethyl 2(3,4-methylenedioxyphenyl)-ethenylidene-1,1-diphosphonate] |  | -5 | -6 |  | 
